Data on one molecule can be found in patent US20200377459A1, “CHARGED ION CHANNEL BLOCKERS AND METHODS FOR USE” (President and Fellows of Harvard College, priority 2015, published 2020).

The test system of the series is ATF3 expression in dorsal root ganglion. Description: ATF3 immunofluorescence in dorsal root ganglion (neurotoxicity). Conditions: mice, hindpaw injection CFA+NEE 1%, 20 μl, 8 weeks earlier. The format is in vivo. How it is done:
Representative picture of ATF3 (dark shading, FIGS. 4A-4C) expression in mice dorsal root ganglion slice exposed 8 weeks earlier to an acute hindpaw injection of CFA+N-ethyl-etidocaine (Compound 21) (1%, 20 μl).
Upon harvesting, the dorsal root ganglia were fixed overnight in 4% para-formaldehyde, washed in PBS and cryoprotected by sequential sucrose immersion (PBS 10-30% sucrose, Overnight). Ganglia were mounted in O.C.T. (Tissue-tek), and serially cut in 20 μm coronal sections with a cryostat. The sections were thaw-mounted on Fisherbrand superfrost microscopy slides and kept at −80° C. On the day of the experiment, sections were thawed at room temperature for 10 min. Sections were washed in PBS for 5 min, blocked for 1 h at room temperature (PBS, 0.1% Triton X-100, 5% BSA) and exposed to the primary antibodies (Overnight, 4° C.), namely rabbit anti-mouse ATF3 (Sigma, # HPA001562). Sections were then washed three times in PBS (5 min), exposed to the secondary antibodies and DAPI (1:2000. Sigma, # D9542) (2 h, dark), washed, coverslipped with Vectashield (Vector Labs) and observed under confocal microscope ([…], LSM-710).
To evaluate if such toxicity occurred with NEE (Compound 21), mice were injected with a combination of CFA+NEE (1%) 8 weeks prior to DRG extraction.

As to `CCC[N+](CC)(CC)C(CC)C(=O)Nc1c(C)cccc1C` (centres unmarked) [Compound 21, N-ethyl etidocaine], the “neurotoxicity: ATF3 expression in DRG” value was “does not induce neurotoxicity”. The “neurotoxicity: ATF3 expression in DRG” value (listed as NEE) is recorded as “No ATF3 expression was observed”.
